Source: US20250107543A1, “TREATMENT OF AGRICULTURAL, FOOD AND RELATED PRODUCTS FOR ELIMINATING CONTAMINANTS AND ENCHANCING SHELF-LIFE” (priority 2022, published 2025)

Experiments:
weevils and weevil eggs [1] = experiment: Shelf-Life Assessment of Rice; parameters: key to Visual observation: Pin holes on grain / Visual observation: Powder at the bottom of bag / Weevils/Insects: ✓ Not observed; x Observed; conditions: for Visual observation: Pin holes on grain / Visual observation: Powder at the bottom of bag / Weevils/Insects: Treated sample
Description: (§1) The data presented in Table-5 illustrates the efficiency of the system of the present disclosure in pre-conditioning and deactivation of weevils and weevil eggs results in delayed occurrence of insect infestation in grains.
(§2) Grains such as Dry corn, Groundnut, Rice & Wheat were separately pre-conditioned and decontaminated in the system of the present disclosure. Grains were exposed to trioxygen gas for up to 5 minutes. The products were put under pressure of trioxygen gas for a span of 9 minutes to 26 minutes. Trioxygen gas having capacity 500 g/h was generated by the trioxygen generator of the system (on site) with a constant oxygen flow rate and delivered to the decontamination chamber through silicon tube. All products were treated with hot air and then analyzed for the presence of the weevils and weevil eggs the results obtained are summarized in Table-5.

[2] = C17H12O6 content of treated whole red chilli; conditions: whole red chilli 12 kg's
Description: (§3) This experiment illustrates the treatment of aerobic micro-organisms, yeast, mould, coliform, E. coli, Salmonella and fat soluble metabolites contaminated whole red chilli.
(§4) The data presented in Table-2 illustrate the efficacy of the present disclosure in detoxifying contaminated whole red chillies. […].
(§5) The red chillies were exposed with Trioxygen for 2 minutes. The products were put under pressure of trioxygen gas for a span of 9 minutes to 26 minutes. Based on the commodity characteristics, the exposure of trioxygen gas was repeated 10 times. Trioxygen gas having a capacity 500 g/h was generated by the trioxygen generator (on site) of the system with a constant oxygen flow rate and delivered to the decontamination chamber through silicon tube. The whole red chillies were then treated to heated air.

[3] = Pesticide residue in treated whole red chilli: Imidacloprid; conditions: whole red chilli 12 kg's, Trial 1; HOCL and Trioxygen simultaneously
Description: (§6) This experiment illustrates the treatment of whole red chilli contaminated with pesticide residues.
(§7) The data presented in Table-6 illustrates the efficacy of the present disclosure in detoxifying contaminated whole red chillies. Sets of whole red chillies of 12 kg's contaminated with pesticides like Azoxystrobin, Imidacloprid Novaluron and Myclobutanil were used for the experiment. An inert gas (Nitrogen & Carbon-di-oxide) were introduced into the chamber filled with the material to drive out existing air and oxygen in the chamber. Pre-conditioning was carried out with HOCL and trioxygen being introduced simultaneously in decontamination chamber with faster decontamination process in the system with a shorter timeline protocol.
(§8) The red chillies were exposed with HOCL and Trioxygen simultaneously for 2 minutes. The products were put under pressure of 2 bar of trioxygen gas for a span of 9 minutes to 26 minutes. Based on the commodity characteristics, the exposure of trioxygen gas was repeated 10 times. Trioxygen gas having a capacity 500 g/h was generated by the trioxygen generator (on site) of the system with a constant oxygen flow rate and delivered to the decontamination chamber through silicon tube. The whole red chillies were then treated to heated air.

aerobic micro-organisms = experiment: Aerobic/Total Plate Count of whole red chilli after pre-conditioning, trioxygen and heated air; conditions: whole red chilli 12 kg's
Description: as §3, §4, §5

weevils and weevil eggs [4] = experiment: Shelf-Life Assessment of Groundnut; parameters: key to Visual observation: Powder at the bottom of bag / Weevils/Insects / Visual observation: Pin holes on grain: ✓ Not observed; x Observed; conditions: for Visual observation: Pin holes on grain / Visual observation: Powder at the bottom of bag / Weevils/Insects: Treated sample
Description: as §1, §2

[5] = C17H12O6 content of treated groundnuts; conditions: groundnut
Description: The data presented in Table-3 illustrates the efficiency of the system of the present disclosure in detoxifying contaminated groundnuts.
Three sets of C17H12O6 contaminated 3 kg's, 60 kg's and 60 kg's of groundnuts were separately pre-conditioned and decontaminated in the system. In this case, groundnuts were pre-conditioned and exposed with trioxygen gas for up to 5 minutes. The products were put under pressure of trioxygen gas for a span of 9 minutes to 26 minutes. Based on the commodity characteristics, the exposure of trioxygen gas was repeated 15 times. Trioxygen gas having capacity 500 g/h was generated by the trioxygen generator of the system (on site) with a constant oxygen flow rate and delivered to the decontamination chamber through silicon tube. All 3 sets of products were heated and then analyzed for the presence of the contaminant and the results obtained are summarized in Table-3.

[6] = Pesticide residue in treated whole red chilli: Myclobutanil; conditions: whole red chilli 12 kg's, Trial 1; HOCL and Trioxygen simultaneously
Description: as §6, §7, §8

Salmonella = Salmonella presence in treated whole red chilli; conditions: whole red chilli 12 kg's, Trial 1
Description: as §3, §4, §5

E. coli = experiment: Detection of E. coli in treated whole red chilli; conditions: whole red chilli 12 kg's, Trial 3
Description: as §3, §4, §5

coliform = experiment: Coliform Count of treated whole red chilli; conditions: whole red chilli 12 kg's
Description: as §3, §4, §5

[7] = Pesticide residue in treated whole red chilli: Azoxystrobin; conditions: whole red chilli 12 kg's, Trial 1; HOCL and Trioxygen simultaneously
Description: as §6, §7, §8

O=[O+][O-] [Trioxygen]
No weevil infestation in system treated samples up to (weevils and weevil eggs [1]): up to 6 months | Treatment effective in delaying infestation up to (weevils and weevil eggs [1]): up to 6 months | Remarks on Weevils/Insects, Treated (weevils and weevil eggs [1]; Post 1.5 Months): No weevils/insects seen | Remarks on Weevils/Insects, Treated (weevils and weevil eggs [1]; Post 2 Months): No weevils/insects seen | Remarks on Weevils/Insects, Treated (weevils and weevil eggs [1]; Post 3 Months): No weevils/insects seen | Remarks on Weevils/Insects, Treated (weevils and weevil eggs [1]; Post 5 Months): No weevils/insects seen | Remarks on Weevils/Insects, Treated (weevils and weevil eggs [1]; Post 6 Months): No weevils/insects seen | Remarks on Weevils/Insects, Treated: black insect alive (weevils and weevil eggs [1]; Post 7 Months): insects and 1 black insect | Remarks on Weevils/Insects, Treated: small cream coloured insects alive (weevils and weevil eggs [1]; Post 7 Months): 1 small cream coloured | Visual observation: Pin holes on grain (weevils and weevil eggs [1]; 1.5 Months): ✓ | Visual observation: Powder at the bottom of bag (weevils and weevil eggs [1]; 1.5 Months): ✓ | Weevils/Insects (weevils and weevil eggs [1]; 1.5 Months): ✓ | Visual observation: Pin holes on grain (weevils and weevil eggs [1]; 2 Months): ✓ | Visual observation: Powder at the bottom of bag (weevils and weevil eggs [1]; 2 Months): ✓ | Weevils/Insects (weevils and weevil eggs [1]; 2 Months): ✓ | Visual observation: Pin holes on grain (weevils and weevil eggs [1]; 3 Months): ✓ | Visual observation: Powder at the bottom of bag (weevils and weevil eggs [1]; 3 Months): ✓ | Weevils/Insects (weevils and weevil eggs [1]; 3 Months): ✓ | Visual observation: Pin holes on grain (weevils and weevil eggs [1]; 5 Months): ✓ | Visual observation: Powder at the bottom of bag (weevils and weevil eggs [1]; 5 Months): ✓ | Weevils/Insects (weevils and weevil eggs [1]; 5 Months): ✓ | Visual observation: Pin holes on grain (weevils and weevil eggs [1]; 6 Months): ✓ | Visual observation: Powder at the bottom of bag (weevils and weevil eggs [1]; 6 Months): ✓ | Weevils/Insects (weevils and weevil eggs [1]; 6 Months): ✓ | Visual observation: Pin holes on grain (weevils and weevil eggs [1]; 7 Months): ✓ | Visual observation: Powder at the bottom of bag (weevils and weevil eggs [1]; 7 Months): ✓ | Weevils/Insects (weevils and weevil eggs [1]; 7 Months): x | C17H12O6, % Reduction ([2]; Trial 2): 73% | C17H12O6, % Reduction ([2]; Trial 3): 76% | Imidacloprid, % Reduction [3]: 40% | Aerobic Plate Count, % Reduction (aerobic micro-organisms; Trial 1): 97% | Aerobic Plate Count, Results After Treatment (aerobic micro-organisms; Trial 1, before treatment 9.82 × 10^8 cfu/g): 3.0 × 10^7 cfu/g | Total Plate Count, % Reduction (aerobic micro-organisms; Trial 2): 80% | Total Plate Count, Results After Treatment (aerobic micro-organisms; Trial 2, before treatment 1.85 × 10^8 cfu/g): 3.72 × 10^7 cfu/g | Total Plate Count, % Reduction (aerobic micro-organisms; Trial 3): 97% | Total Plate Count, Results After Treatment (aerobic micro-organisms; Trial 3, before treatment 2.4 × 10^7 cfu/g): 8.36 × 10^5 cfu/g | No weevil infestation in system treated samples up to (weevils and weevil eggs [4]): up to 6 months | Treatment effective in delaying infestation up to (weevils and weevil eggs [4]): up to 6 months | Remarks on Weevils/Insects, Treated (weevils and weevil eggs [4]; Post 1.5 Months): No weevils/insects | Remarks on Weevils/Insects, Treated (weevils and weevil eggs [4]; Post 2 Months): No weevils/insects | Remarks on Weevils/Insects, Treated (weevils and weevil eggs [4]; Post 3 Months): No weevils/insects | Remarks on Weevils/Insects, Treated (weevils and weevil eggs [4]; Post 5 Months): No weevils/insects | Remarks on Weevils/Insects, Treated (weevils and weevil eggs [4]; Post 6 Months): No weevils/insects | Remarks on Weevils/Insects, Treated: insect observed alive, buff/cream, 5 mm long (weevils and weevil eggs [4]; Post 7 Months): 1 insect observed - | Visual observation: Pin holes on grain (weevils and weevil eggs [4]; 1.5 Months): ✓ | Visual observation: Powder at the bottom of bag (weevils and weevil eggs [4]; 1.5 Months): ✓ | Weevils/Insects (weevils and weevil eggs [4]; 1.5 Months): ✓ | Visual observation: Pin holes on grain (weevils and weevil eggs [4]; 2 Months): ✓ | Visual observation: Powder at the bottom of bag (weevils and weevil eggs [4]; 2 Months): ✓ | Weevils/Insects (weevils and weevil eggs [4]; 2 Months): ✓ | Visual observation: Pin holes on grain (weevils and weevil eggs [4]; 3 Months): ✓ | Visual observation: Powder at the bottom of bag (weevils and weevil eggs [4]; 3 Months): ✓ | Weevils/Insects (weevils and weevil eggs [4]; 3 Months): ✓ | Visual observation: Pin holes on grain (weevils and weevil eggs [4]; 5 Months): ✓ | Visual observation: Powder at the bottom of bag (weevils and weevil eggs [4]; 5 Months): ✓ | Weevils/Insects (weevils and weevil eggs [4]; 5 Months): ✓ | Visual observation: Pin holes on grain (weevils and weevil eggs [4]; 6 Months): ✓ | Visual observation: Powder at the bottom of bag (weevils and weevil eggs [4]; 6 Months): ✓ | Weevils/Insects (weevils and weevil eggs [4]; 6 Months): ✓ | Visual observation: Pin holes on grain (weevils and weevil eggs [4]; 7 Months): ✓ | Visual observation: Powder at the bottom of bag (weevils and weevil eggs [4]; 7 Months): ✓ | Weevils/Insects (weevils and weevil eggs [4]; 7 Months): x | Number of weevils in treated sample, times less than that in control sample (weevils and weevil eggs [4]; at month 7): 3 times | C17H12O6, % Reduction ([5]; Sr. No. 1, 3 kg's): 100% | C17H12O6, % Reduction ([5]; Sr. No. 2, 60 kg's): 93% | C17H12O6, % Reduction ([5]; Sr. No. 3, 60 kg's): 64% | Myclobutanil, % Reduction [6]: 100% | Salmonella, % Reduction (Salmonella): 100% | Salmonella, Results After Treatment (Salmonella; before treatment Present/25 g): Absent/25 g | Detection of E. coli, % Reduction (E. coli): 100% | Detection of E. coli, Results After Treatment (E. coli; before treatment Present/25 g): Absent/25 g | Coliform Count, % Reduction (coliform; Trial 1): 93% | Coliform Count, Results After Treatment (coliform; Trial 1, before treatment 2.7 × 10^4 cfu/g): 1.82 × 10^3 cfu/g | Coliform Count, % Reduction (coliform; Trial 3): 100% | Coliform Count, Results After Treatment (coliform; Trial 3, before treatment 5.45 × 10^3 cfu/g): <10 cfu/g | Azoxystrobin, % Reduction [7]: 62%
